The record followed here is PubChem BioAssay AID252 (DTP/NCI, 2004).

Where “and” joins values, the source holds several entries; their conditions need not be identical. Equal values may be shown once. Inconclusive results and toxic doses are left out.

In the experiment the test system is BDF1 mice, intracerebral L1210 leukemia, survival T/C. Put plainly: NCI In Vivo Anticancer Drug Screen. Data for tumor model L1210 Leukemia (intracerebral) in B6D2F1 (BDF1) mice. Particulars: higher = longer survival. The gist of the method:
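Readout is the T/C ratio: survival of compound-treated animals over that of vehicle-treated controls, in mice bearing transplantable tumour.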

The mark [1] stands for this setting: endpoint: mean survival time, dose: 9.0 mg/kg/injection, schedule: Q01DX001 (ip), vehicle: carboxymethylcellulose (CMC).
The mark [2] stands for this setting: endpoint: mean survival time, dose: 13.0 mg/kg/injection, schedule: Q01DX001 (ip), vehicle: carboxymethylcellulose (CMC).

With `N[C@H](C(=O)O)[C@H]1ON=C(Cl)[C@@H]1O`, the T/C was 109 % of control (endpoint: mean survival time, dose: 8.0 mg/kg/injection, schedule: Q01DX009 (ip), vehicle: saline); 115 % of control (endpoint: mean survival time, dose: 16.0 mg/kg/injection, schedule: Q01DX009 (ip), vehicle: saline); 123 % of control (endpoint: median survival time, dose: 256.0 mg/kg/injection, schedule: Q01DX009 (ip), vehicle: saline); 111 % of control (endpoint: median survival time, dose: 512.0 mg/kg/injection, schedule: Q01DX009 (ip), vehicle: saline); 171 % of control (endpoint: median survival time, dose: 1024.0 mg/kg/injection, schedule: Q01DX009 (ip), vehicle: saline).
On to `O=NN(CCF)C(=O)NC12CC3CC(CC(C3)C1)C2`, for which the T/C by setting is: (endpoint: mean survival time, dose: 10.0 mg/kg/injection, schedule: Q01DX001 (ip), vehicle: other) 103 % of control; (endpoint: mean survival time, dose: 20.0 mg/kg/injection, schedule: Q01DX001 (ip), vehicle: other) 101 % of control; (endpoint: mean survival time, dose: 40.0 mg/kg/injection, schedule: Q01DX001 (ip), vehicle: other) 110 % of control; (endpoint: mean survival time, dose: 60.0 mg/kg/injection, schedule: Q01DX001 (ip), vehicle: other) 120 % of control.
As to `O=NN(CCF)C(=O)NC1CS(=O)(=O)CS(=O)(=O)C1`, the T/C was 113 % of control (endpoint: mean survival time, dose: 11.0 mg/kg/injection, schedule: Q01DX001 (ip), vehicle: other); 117 % of control (endpoint: mean survival time, dose: 17.0 mg/kg/injection, schedule: Q01DX001 (ip), vehicle: other); 120 % of control (endpoint: mean survival time, dose: 25.0 mg/kg/injection, schedule: Q01DX001 (ip), vehicle: other).
In the case of `C[C@]12C=CC(=O)C=C1CC[C@@H]1[C@@H]2C(=O)C[C@@]2(C)[C@H]1CC[C@]2(O)C(=O)CO`, the T/C is 97 % of control (endpoint: mean survival time, dose: 100.0 mg/kg/injection, schedule: Q01DX Z (sc), vehicle: steriod suspending solution); 102 % of control (endpoint: mean survival time, dose: 120.0 mg/kg/injection, schedule: Q01DX001 (sc), vehicle: steriod suspending solution); 103 % of control (endpoint: mean survival time, dose: 180.0 mg/kg/injection, schedule: Q01DX001 (sc), vehicle: steriod suspending solution); 109 % of control (endpoint: mean survival time, dose: 200.0 mg/kg/injection, schedule: Q01DX Z (sc), vehicle: steriod suspending solution); 103 % of control (endpoint: mean survival time, dose: 240.0 mg/kg/injection, schedule: Q01DX001 (sc), vehicle: steriod suspending solution); 112 % of control (endpoint: mean survival time, dose: 250.0 mg/kg/injection, schedule: Q01DX Z (sc), vehicle: steriod suspending solution). Further, the T/C (endpoint: mean survival time, dose: 375.0 mg/kg/injection, schedule: Q01DX Z (sc), vehicle: steriod suspending solution) was 102 % of control; the T/C (endpoint: mean survival time, dose: 500.0 mg/kg/injection, schedule: Q01DX Z (sc), vehicle: steriod suspending solution) was 97 % of control; the T/C (endpoint: mean survival time, dose: 750.0 mg/kg/injection, schedule: Q01DX Z (sc), vehicle: steriod suspending solution) is 112 % of control.
Regarding `CS(=O)(=O)CCN(N=O)C(=N)N[N+](=O)[O-]`, the T/C runs as follows: (endpoint: mean survival time, dose: 12.0 mg/kg/injection, schedule: Q01DX Z (ip), vehicle: carboxymethylcellulose (CMC)) 97 % of control; (endpoint: mean survival time, dose: 24.0 mg/kg/injection, schedule: Q01DX Z (ip), vehicle: carboxymethylcellulose (CMC)) 100 % of control; (endpoint: mean survival time, dose: 48.0 mg/kg/injection, schedule: Q01DX Z (ip), vehicle: carboxymethylcellulose (CMC)) 109 % of control; (endpoint: mean survival time, dose: 96.0 mg/kg/injection, schedule: Q01DX Z (ip), vehicle: carboxymethylcellulose (CMC)) 90 % of control.
Take `O=NN(CCF)C(=O)Nc1c[nH]c(=O)[nH]c1=O`: the T/C by setting is: under setting [1], 103 % of control; under setting [2], 105 % of control; (endpoint: mean survival time, dose: 20.0 mg/kg/injection, schedule: Q01DX001 (ip), vehicle: carboxymethylcellulose (CMC)) 110 % of control.
In the case of `O=NN(CCCl)C(=O)NC1CCC(C(=O)O)CC1` (configuration not stated), the T/C is, setting by setting: (endpoint: mean survival time, dose: 8.0 mg/kg/injection, schedule: Q01DX001 (ip), vehicle: saline with Tween-80) 165 % of control; (endpoint: mean survival time, dose: 26.0 mg/kg/injection, schedule: Q01DX001 (ip), vehicle: saline with Tween-80) 181 % of control and 206 % of control; (endpoint: mean survival time, dose: 40.0 mg/kg/injection, schedule: Q01DX001 (ip), vehicle: saline with Tween-80) 185 % of control and 212 % of control; (endpoint: mean survival time, dose: 60.0 mg/kg/injection, schedule: Q01DX001 (ip), vehicle: saline with Tween-80) 204 % of control.
In the case of `CNC1=C(N2CC2)C(=O)C(NC)=C(N2CC2)C1=O`, the T/C reads like this: (endpoint: mean survival time, dose: 0.05 mg/kg/injection, schedule: Q01DX009 (ip), vehicle: saline) 106 % of control; (endpoint: mean survival time, dose: 0.1 mg/kg/injection, schedule: Q01DX009 (ip), vehicle: saline) 111 % of control; (endpoint: mean survival time, dose: 0.2 mg/kg/injection, schedule: Q01DX009 (ip), vehicle: saline) 160 % of control; (endpoint: mean survival time, dose: 0.3 mg/kg/injection, schedule: Q01DX009 (ip), vehicle: saline) 119 % of control; (endpoint: mean survival time, dose: 0.4 mg/kg/injection, schedule: Q01DX009 (ip), vehicle: saline) 103 % of control; (endpoint: mean survival time, dose: 0.6 mg/kg/injection, schedule: Q01DX009 (ip), vehicle: saline) 160 % of control.
Turning to `N=c1ccn2c(n1)OC1C(O)C(CO)OC12` (configuration not stated), the T/C is, setting by setting: (endpoint: mean survival time, dose: 50.0 mg/kg/injection, schedule: Q01DX009 (oral), vehicle: saline) 220 % of control; (endpoint: mean survival time, dose: 50.0 mg/kg/injection, schedule: Q08DX009 (ip), vehicle: water) 175 % of control; (endpoint: mean survival time, dose: 100.0 mg/kg/injection, schedule: Q01DX009 (oral), vehicle: saline) 228 % of control; (endpoint: mean survival time, dose: 100.0 mg/kg/injection, schedule: Q01DX009 (oral), vehicle: water) 186 % of control; (endpoint: mean survival time, dose: 100.0 mg/kg/injection, schedule: Q08DX009 (ip), vehicle: water) 196 % of control; (endpoint: mean survival time, dose: 200.0 mg/kg/injection, schedule: Q01DX009 (oral), vehicle: saline) 255 % of control. Besides, the T/C was 201 % of control (endpoint: mean survival time, dose: 200.0 mg/kg/injection, schedule: Q01DX009 (oral), vehicle: water); 215 % of control and 258 % of control (endpoint: mean survival time, dose: 200.0 mg/kg/injection, schedule: Q08DX009 (ip), vehicle: water); 232 % of control and 217 % of control (endpoint: mean survival time, dose: 300.0 mg/kg/injection, schedule: Q08DX009 (ip), vehicle: water); 193 % of control (endpoint: mean survival time, dose: 400.0 mg/kg/injection, schedule: Q01DX009 (oral), vehicle: saline); 223 % of control (endpoint: mean survival time, dose: 400.0 mg/kg/injection, schedule: Q01DX009 (oral), vehicle: water); 285 % of control (endpoint: mean survival time, dose: 400.0 mg/kg/injection, schedule: Q08DX009 (ip), vehicle: water). The T/C is 167 % of control (endpoint: median survival time, dose: 65.0 mg/kg/injection, schedule: Q01DX009 (ip), vehicle: water); 196 % of control (endpoint: median survival time, dose: 100.0 mg/kg/injection, schedule: Q01DX009 (ip), vehicle: water); 176 % of control (endpoint: median survival time, dose: 108.0 mg/kg/injection, schedule: Q01DX009 (ip), vehicle: water); 223 % of control (endpoint: median survival time, dose: 200.0 mg/kg/injection, schedule: Q01DX009 (ip), vehicle: water); 354 % of control (endpoint: median survival time, dose: 400.0 mg/kg/injection, schedule: Q01DX009 (ip), vehicle: water).
For `O=NN(CCCl)C(=O)NC1CCS(=O)(=O)CC1`, the T/C (endpoint: mean survival time, dose: 7.5 mg/kg/injection, schedule: Q01DX001 (ip), vehicle: carboxymethylcellulose (CMC)) is 212 % of control; the T/C (endpoint: mean survival time, dose: 8.0 mg/kg/injection, schedule: Q01DX001 (ip), vehicle: carboxymethylcellulose (CMC)) was 171 % of control and 172 % of control; the T/C (endpoint: mean survival time, dose: 11.4 mg/kg/injection, schedule: Q01DX001 (ip), vehicle: carboxymethylcellulose (CMC)) is 289 % of control; the T/C (endpoint: mean survival time, dose: 12.0 mg/kg/injection, schedule: Q01DX001 (ip), vehicle: carboxymethylcellulose (CMC)) is 197 % of control and 281 % of control; the T/C (endpoint: mean survival time, dose: 17.0 mg/kg/injection, schedule: Q01DX001 (ip), vehicle: carboxymethylcellulose (CMC)) was 298 % of control; the T/C (endpoint: mean survival time, dose: 18.0 mg/kg/injection, schedule: Q01DX001 (ip), vehicle: carboxymethylcellulose (CMC)) is 151 % of control and 251 % of control. Besides, the T/C by setting is: (endpoint: mean survival time, dose: 25.0 mg/kg/injection, schedule: Q01DX001 (ip), vehicle: carboxymethylcellulose (CMC)) 151 % of control; (endpoint: mean survival time, dose: 27.0 mg/kg/injection, schedule: Q01DX001 (ip), vehicle: carboxymethylcellulose (CMC)) 88 % of control; (endpoint: mean survival time, dose: 37.0 mg/kg/injection, schedule: Q01DX001 (ip), vehicle: carboxymethylcellulose (CMC)) 90 % of control.
Regarding `O=NN(CCCl)C(=O)Nc1ccc(CC(=O)O)cc1`, the T/C is 104 % of control (endpoint: mean survival time, dose: 6.0 mg/kg/injection, schedule: Q01DX001 (ip), vehicle: carboxymethylcellulose (CMC)); 106 % of control under setting [1]; 110 % of control under setting [2]; 104 % of control (endpoint: mean survival time, dose: 26.0 mg/kg/injection, schedule: Q01DX001 (ip), vehicle: carboxymethylcellulose (CMC)).
For the compound `OCCOCCN1CCN(CCCN2c3ccccc3Sc3ccc(C(F)(F)F)cc32)CC1`, the T/C by setting is: (endpoint: mean survival time, dose: 18.7 mg/kg/injection, schedule: Q04DX003 (ip), vehicle: saline) 106 % of control; (endpoint: mean survival time, dose: 37.5 mg/kg/injection, schedule: Q04DX003 (ip), vehicle: saline) 106 % of control; (endpoint: mean survival time, dose: 75.0 mg/kg/injection, schedule: Q04DX003 (ip), vehicle: saline) 106 % of control.
For the compound `O=NN(CCF)C(=O)Nc1ccccc1`, the T/C (endpoint: mean survival time, dose: 8.0 mg/kg/injection, schedule: Q01DX001 (ip), vehicle: other) is 120 % of control.
